Paper PMC1865377, “A novel bifunctional N-acetylglutamate synthase-kinase from Xanthomonas campestris that is closely related to mammalian N-acetylglutamate synthase” (BMC Biochemistry, 2007)

Legend:
H6XcNAGS-K [1] = target: T1, H6XcNAGS-K (Xanthomonas campestris, UniProt A0A0H2X8L7); test: synthase activity, LC-MS of N-acetylglutamate; format: biochemical; details: 50 mM L-glutamate, 2 mM AcCoA, pH 9.0, 30 °C
T1 construct: gene XC_1873; full length, E. coli BL21(DE3), pET15b, N-terminal polyhistidine tag and thrombin site kept
T1 sequence (A0A0H2X8L7 1-447): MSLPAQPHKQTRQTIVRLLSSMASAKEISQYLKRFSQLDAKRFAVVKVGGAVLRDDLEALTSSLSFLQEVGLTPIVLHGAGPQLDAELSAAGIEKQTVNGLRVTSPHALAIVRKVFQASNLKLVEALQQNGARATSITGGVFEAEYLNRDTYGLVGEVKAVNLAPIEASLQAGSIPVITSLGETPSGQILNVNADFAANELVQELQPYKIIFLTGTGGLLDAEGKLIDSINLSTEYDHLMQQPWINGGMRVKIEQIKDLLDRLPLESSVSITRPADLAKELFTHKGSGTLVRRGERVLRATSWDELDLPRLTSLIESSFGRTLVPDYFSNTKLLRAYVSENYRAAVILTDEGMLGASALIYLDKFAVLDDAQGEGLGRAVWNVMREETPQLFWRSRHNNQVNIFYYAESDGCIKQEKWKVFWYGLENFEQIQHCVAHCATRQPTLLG

H6XcNAGS-K [2] = target: T1, H6XcNAGS-K; test: kinase activity, colorimetric hydroxamate assay; format: biochemical; details: 100 mM N-acetylglutamate, 20 mM ATP, 40 mM MgCl2, 400 mM hydroxylamine, pH 6.0, 30 °C

## N=C(N)NCCC[C@H](N)C(=O)O [L-arginine]
H6XcNAGS-K [1]
  half-inhibition: presence of an affinity tag did not affect the inhibition of the synthase activity of XcNAGS-K
H6XcNAGS-K [2]
  half-inhibition: half-inhibition of the kinase activities of XcNAGS-K with and without polyhistidine differed two-fold
